# Measurements: patent US20220168328A1, “METHODS AND COMPOSITIONS FOR TREATING EUKARYOTIC INFECTIONS VIA ALTERING AGGREGATION DYNAMICS OF RAPTOR/KOG1” (ARIZONA BOARD OF REGENTS ON BEHALF OF THE UNIVERSITY OF …, priority 2014, published 2022)
# Experiments:
# esophageal candidiasis = experiment: Patient with esophageal candidiasis treated with oral phenformin (Example 1); format: in vivo, human; conditions: person, 200 mg phenformin
# Experimental: The physician notes the presence of white plaques on the patient's tongue. The physician diagnoses esophageal candidiasis. The physician administers an oral pharmaceutical containing 200 mg of phenformin, an agent that activates TORC1 aggregate formation.
# ringworm = experiment: Patient with ringworm treated with topical AICAR (Example 2); format: in vivo, human; conditions: child, 3 g AICAR
# From the text: A child (height of 165 cm, weight of 55 kg) presents to their primary care physician with a red and itchy rash on their forearm. The rash is in a circular pattern. The physician diagnoses the patient with ringworm. The physician administers a dose of a topical pharmaceutical containing 3 g of AICAR, an agent that activates TORC1 aggregate formation.
# Kog1 = Kog1 foci (Kog1 bodies) resolution in WT cells after glucose starvation; format: cell-based, budding yeast; conditions: cycloheximide (CHX) alone, without glucose repletion
# TORC1 = experiment: DNA microarray measurement of TORC1 pathway output (gene expression) with and without rapamycin; format: cell-based, S. cerevisiae; conditions: salt stress, 0.4M KCl; hog1Δ versus wild-type strain
# Experimental: Previous studies of TOR pathway signaling in stress have been limited to measuring phosphorylation of a single substrate, Sch9. As a result it was not clear whether stress signals inhibit TORC1 activity directly or simply act on one or two TORC1 targets proteins. To help distinguish between these possibilities, the complete output of TORC1 pathway in osmotic stress was measured using DNA microarrays. To do this, the cellular response was monitored with and without the potent TORC1 inhibitor rapamycin in 0.4M KCl and three control conditions: amino acid starvation, nitrogen starvation and log growth conditions.
# In osmotic stress, Hog1/p38, the terminal kinase in the HOG pathway, is known to regulate many aspects of the stress response including transcription, chromatin remodeling, cell cycle check-points, and ion and glycerol channel regulation. […]
# (a) DNA microarray data comparing the gene expression program activated by KCl stress and the TORC1 inhibitor rapamycin. […] A phosphorylation-induced shift in the electrophoretic mobility of Sch9-3HA was measured by performing a western blot to a SDS-PAGE gel loaded with extract from cells collected before and after treatment with 0.4M KCl, using an anti-HA antibody. […] The experiment described in (b) was carried out in triplicate in wild-type and hog1A strains and the fraction of protein in the phosphorylated state was quantified using densitometry. […]
smiles,measurement,setting,value
[H]/N=C(/N)N/C(=N/[H])NCCc1ccccc1 [phenformin],signs of improvement after one day of treatment,esophageal candidiasis; one day,absence of white plaques on the tongue and no difficulty swallowing
same,outcome by two days of treatment,esophageal candidiasis; two days,sore throat is gone
NC(=O)c1ncn([C@@H]2O[C@H](CO)[C@@H](O)[C@H]2O)c1N [AICAR],outcome by four days of treatment,ringworm,the rash is gone
C[C@@H]1C[C@@H]([C@H](O)CC2CC(=O)NC(=O)C2)C(=O)[C@@H](C)C1 [cycloheximide],disaggregation of Kog1,Kog1,does not trigger disaggregation of Kog1
CO[C@H]1C[C@@H]2CC[C@@H](C)[C@@](O)(O2)C(=O)C(=O)N2CCCC[C@H]2C(=O)O[C@H]([C@H](C)C[C@@H]2CC[C@@H](O)[C@H](OC)C2)CC(=O)[C@H](C)/C=C(\C)[C@@H](O)[C@@H](OC)C(=O)[C@H](C)C[C@H](C)/C=C/C=C/C=C/1C [rapamycin],more repression by rapamycin in hog1Δ than wt,TORC1,4 fold
